Assay results taken from PMC12818720, “Nanoengineered Self-Assembling Peptides with Increased Proteolytic Stability Promote Wound Healing” (ACS Applied Materials & Interfaces, 2025).
Ends that are not written are not given here.

What was measured:
HaCaT cells = assay: Cytotoxicity / metabolic activity, AlamarBlue direct contact assay; assay type: cell-based, human; settings: assembly performed in the presence of Cu2+ (1:1), 24 h, serum-free DMEM-HG
Protocol: As the designed systems target wound healing, we assessed their cytocompatibility toward human keratinocyte cell line HaCaT.
The cytotoxicity evaluation of the peptides and their supramolecular assemblies was evaluated by direct contact assay with HaCaT cells using the AlamarBlue HS Cell Viability Reagent assay (Biorad). Briefly, HaCaT cells were cultured in DMEM-HG supplemented with 10% FBS (2.5 × 10^4 cell/well) in 96-well plates for 24 h. Peptide solutions (10 mM) were prepared 24 h before the assay and sterilized (UV, 30 min). These solutions were diluted in serum-free DMEM-HG just prior to the assay to obtain concentrations ranging from 1 to 0.05 mM and added to the cultured HaCaT cells. Cultures with the peptides were mantained for 24 h and then the medium was aspirated, and AlamarBlue HS Cell Viability solution (10% (v/v) in DMEM-HG) was added to each well. The plates were incubated for 3 h at 37 °C with 5% CO2. The medium from each well was transferred to a black 96-well plate, and the fluorescence was measured using a microplate reader (Synergy, Bio-Tek) with an excitation wavelength of 550 nm and an emission wavelength of 590 nm. Cells cultured on tissue culture polystyrene (TCPS) were used as a positive control and cells treated with 20% DMSO were used as a negative one.

proteinase K = target: T1, proteinase K (Parengyodontium album, UniProt P06873); assay: Stability of peptide assemblies against proteinase K (HPLC); assay type: in vitro ADME; settings: in the presence of Cu2+, peptide 2 mM
T1 construct: purchased AppliChem
Protocol: The chemical structure and molecular packing of the peptides play a crucial role in their stability by (un)-shielding the amide bonds from enzymatic degradation. − We investigated the stability of the supramolecular assemblies generated by Pep1–Pep3 in the presence of proteinase K. This enzyme was selected because of its activity toward a broad range of peptides/proteins that spans different temperatures (25–65 °C) and pH values (7–12).
A stock solution of proteinase K (50 μg/mL, AppliChem) was prepared in PBS. Peptide assemblies were prepared as described in Section 1 day prior the assay. These samples were incubated with proteinase K (final concentration: 10 μg/mL for proteinase K and 2 mM for Cu-free or Cu-complexed Pep1-Pep3). At each designated time point, an aliquot of 150 μL was collected, and the enzymatic activity was stopped by adding 300 μL of 1:1 H2O/ACN with 0.1% TFA. The aliquot was quantitatively assessed using HPLC under the conditions described in Section . Each sample was run in duplicate to ensure reliable results.

T1 sequence (P06873 106-384): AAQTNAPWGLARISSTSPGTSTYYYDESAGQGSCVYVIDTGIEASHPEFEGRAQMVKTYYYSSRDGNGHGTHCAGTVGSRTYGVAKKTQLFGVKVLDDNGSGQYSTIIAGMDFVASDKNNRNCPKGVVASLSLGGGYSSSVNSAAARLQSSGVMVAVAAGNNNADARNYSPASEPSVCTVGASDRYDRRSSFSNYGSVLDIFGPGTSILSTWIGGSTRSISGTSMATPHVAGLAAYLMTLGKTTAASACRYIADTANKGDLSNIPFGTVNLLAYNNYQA

Sequence | concentration above which cytotoxicity was observed (HaCaT cells) | peptide not degraded after 6 h of incubation with proteinase K (proteinase K; proteinase K 10 μg/mL in PBS, 6 h, HPLC read-out, run in duplicate) | initial concentration still present after 24 h with proteinase K (proteinase K; proteinase K 10 μg/mL in PBS, 24 h, HPLC read-out, run in duplicate) [%] | relative stability to proteinase K (in words) (proteinase K; proteinase K 10 μg/mL, HPLC)
FFFFDKHG [Pep3] | above 250 μM | more than 90% | 60 | most stable
FFFFDGHK [Pep2] | above 250 μM | – | – | –
